We go through three molecules from PMC9369794 (Molecules, 2022).

Each structure is given as a SMILES string.

Series [1] is described as follows: Kinetic solubility in PBS pH 7.4. Format: physicochemical. The note with it: aqueous buffer, kinetic from dmso stock, kinetic solubility after 2 h, at 37 °C in PBS, nominal 250 μM, read-out: Kin.Sol. The procedure:
On a 96-well polypropylene plate (Greiner bio-one) 7.5 μL stock solutions were added to 292.5 μL PBS (pH 7.4) to make a solution with the nominal concentration of 250 μM. For each sample 3 replicates were measured. […] After that, each sample was transferred into a filter plate (MSSBLPC, Multiscreen Filter plate, Merck kGaA) and filtered (Vaccum Manifold, Merck kGaA, Darmstadt, Germany). The filtrates were transferred into UV-Star microplates (Greiner bio-one) and acetonitrile (AcN) was added to each well to avoid precipitation. The final solvent ratio was AcN:PBS 70:30. UV-Vis spectra were collected for each replicate by a Multiskan Sky UV-plate reader (Thermo Scientific, Waltham, MA, USA) in a wavelength range of 250–700 nm, with 1 nm steps. After blank substraction, the kinetic solubility of the samples was determined based on absorption at λmax using a 5-point calibration curve for each sample recorded in 70:30 AcN:PBS solvent.
Limit of detection (LOD) and limit of quantification (LOQ) were calculated with Equations (1) and (2) respectively, based on UV-Vis spectral data:(1) LOD=3.3×σ/s (2) LOQ=10×σ/s where the σ value in the equations stands for the standard deviation of the absorption base line at 700 nm (where no sample-specific absorption was observed). The s value is the slope of the calibration curve recorded for each sample based on their absorption at λmax (Table 4.)

Series [2] can be described thus: Hydrodynamic diameter and colloidal stability of aggregates by dynamic light scattering. Particulars: for mean size (hydrodynamic diameter) / zeta potential: 37 °C; for PDI: sd^2/mean size^2. It counts as physicochemical. The method, boiled down:
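Hydrodynamic diameter (number-weighted; PDI as sd^2/mean size^2) and zeta potential were measured by DLS at 173° scattering angle. Samples, 0.3125–5 µM DMSO solutions diluted into PBS, were examined after 6 min incubation at 37 °C.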

Setting [3] is: 0.3125 μM in PBS from DMSO stock.
[4] abbreviates: 0.625 μM in PBS from DMSO stock.

As for `CC1=C(/C=C/C(C)=C/C=C/C(C)=C/C=C/C=C(C)/C=C/C=C(\C)COC(=O)CCC(=O)O)C(C)(C)CCC1` [Compound 6, 8′-Apo-β-carotenol succinate], in series [1], the solubility kinetic at 2 h was determined as 52.3 ± 2.4 µM. The “mean size (hydrodynamic diameter)” value in series [2] (setting [3]) amounted to 303.50 nm; in series [2] (setting [4]), 395.10 nm; in series [2] (1.25 μM in PBS from DMSO stock), 221.50 nm; in series [2] (2.5 μM in PBS from DMSO stock), 26.74 nm; in series [2] (3.75 μM in PBS from DMSO stock) it was 152.60 nm; in series [2] (5 μM in PBS from DMSO stock) it was 144.20 nm. Also, the zeta potential in series [2] (setting [3]) is recorded as −8.2 mV; in series [2] (setting [4]) it was −10.2 mV; in series [2] (1.25 μM in PBS from DMSO stock) it was −17.7 mV; in series [2] (2.5 μM in PBS from DMSO stock) it was −30.5 mV; in series [2] (3.75 μM in PBS from DMSO stock) it was −12.3 mV; in series [2] (5 μM in PBS from DMSO stock), −27.5 mV. Further, the PDI in series [2] (0.3125 μM in PBS) was 0.0137; in series [2] (0.625 μM in PBS), 0.0455; in series [2] (1.25 μM in PBS) it was 0.0218; in series [2] (2.5 μM in PBS), 0.0206; in series [2] (3.75 μM in PBS), 0.0268; in series [2] (5 μM in PBS), 0.0204.

For `CC1=C(/C=C/C(C)=C/C=C/C(C)=C/C=C/C=C(C)/C=C/C=C(C)/C=C/C2=C(C)C[C@@H](OC(=O)CCC(=O)O)CC2(C)C)C(C)(C)C[C@H](OC(=O)CCC(=O)O)C1` [Compound 7, Zeaxanthin bissuccinate], in series [1], the solubility kinetic at 2 h was 0.6 ± 0.1 µM. For the same molecule, the “mean size (hydrodynamic diameter)” value in series [2] (setting [3]) was 1050.00 nm; in series [2] (setting [4]) it was 429.30 nm; in series [2] (1.25 μM in PBS from DMSO stock), 544.50 nm; in series [2] (2.5 μM in PBS from DMSO stock), 195.60 nm; in series [2] (3.75 μM in PBS from DMSO stock) it was 44.78 nm; in series [2] (5 μM in PBS from DMSO stock) it was 238.20 nm. Also, the zeta potential is recorded as 27.5 mV in series [2] (setting [3]); 23.4 mV in series [2] (setting [4]); 21.1 mV in series [2] (1.25 μM in PBS from DMSO stock); 17.9 mV in series [2] (2.5 μM in PBS from DMSO stock); 20.0 mV in series [2] (3.75 μM in PBS from DMSO stock); 20.1 mV in series [2] (5 μM in PBS from DMSO stock). Moreover, the PDI worked out at 0.0407 in series [2] (0.3125 μM in PBS); 0.0162 in series [2] (0.625 μM in PBS); 0.0294 in series [2] (1.25 μM in PBS); 0.0202 in series [2] (2.5 μM in PBS); 0.0267 in series [2] (3.75 μM in PBS); 0.0270 in series [2] (5 μM in PBS).

As for `CC1=C(/C=C/C(C)=C/C=C/C(C)=C/C=C/C=C(C)/C=C/C=C(C)/C=C/C2=C(C)C[C@@H](OC(=O)CCC(=O)O)CC2(C)C)C(C)(C)CCC1` [Compound 8, β-Cryptoxanthin succinate], the solubility kinetic at 2 h in series [1] is 1.3 ± 0.1 µM. In addition, the “mean size (hydrodynamic diameter)” value in series [2] (setting [3]) was found to be 11.04 nm; in series [2] (setting [4]), 25.68 nm; in series [2] (1.25 μM in PBS from DMSO stock) it was 31.94 nm; in series [2] (2.5 μM in PBS from DMSO stock), 34.03 nm; in series [2] (3.75 μM in PBS from DMSO stock) it was 468.90 nm; in series [2] (5 μM in PBS from DMSO stock) it was 14.19 nm. The zeta potential in series [2] (setting [3]) is reported as 34.1 mV; in series [2] (setting [4]) it was 27.5 mV; in series [2] (1.25 μM in PBS from DMSO stock), 21 mV; in series [2] (2.5 μM in PBS from DMSO stock), 17.6 mV; in series [2] (3.75 μM in PBS from DMSO stock), 2.55 mV; in series [2] (5 μM in PBS from DMSO stock), −0.01 mV. In addition, the PDI in series [2] (0.3125 μM in PBS) is reported as 0.0168; in series [2] (0.625 μM in PBS), 0.0307; in series [2] (1.25 μM in PBS), 0.0723; in series [2] (2.5 μM in PBS), 0.0360; in series [2] (3.75 μM in PBS), 0.0131; in series [2] (5 μM in PBS), 0.0339.
